Results on three compounds are retold here after ChEMBL document CHEMBL4033666, “Synthesis and mechanistic evaluation of novel N'-benzylidene-carbohydrazide-1H-pyrazolo[3,4-b]pyridine derivatives as non-anionic antiplatelet agents” (Eur J Med Chem, 2017).

Calls of active or inactive are those of the source. Unless noted, the calls are words filed in the database; no cut-off is given here.

For data set [1], the system named is Platelet. The experiment in a line: Antiplatelet activity in human platelet rich plasma assessed as inhibition of collagen-induced platelet aggregation at 100 uM preincubated for 2 mins followed by collagen addition by turbidimetric method relative to control. The class given is cell-based.
Data set [2] addresses T1, Thromboxane-A synthase (Homo sapiens) (UniProt P24557).
T1 sequence (whole entry): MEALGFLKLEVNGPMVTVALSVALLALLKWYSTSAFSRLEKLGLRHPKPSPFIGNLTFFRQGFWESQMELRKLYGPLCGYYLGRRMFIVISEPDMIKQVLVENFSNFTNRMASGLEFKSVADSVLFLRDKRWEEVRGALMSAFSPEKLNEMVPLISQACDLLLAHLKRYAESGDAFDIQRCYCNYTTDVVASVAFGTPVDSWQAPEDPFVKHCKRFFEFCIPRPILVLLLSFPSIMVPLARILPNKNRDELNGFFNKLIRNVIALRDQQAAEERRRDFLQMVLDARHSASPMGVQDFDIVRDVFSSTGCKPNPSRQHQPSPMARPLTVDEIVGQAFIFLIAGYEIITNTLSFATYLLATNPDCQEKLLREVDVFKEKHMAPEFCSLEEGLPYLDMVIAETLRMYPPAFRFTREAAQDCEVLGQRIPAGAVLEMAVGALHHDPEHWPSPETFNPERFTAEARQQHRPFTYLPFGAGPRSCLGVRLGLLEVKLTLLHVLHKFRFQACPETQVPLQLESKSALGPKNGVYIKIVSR
The experiment in a line: Inhibition of TXS in human platelet rich plasma assessed as decrease in TXB2 production at 100 uM using arachidonic acid after 5 mins by ELISA. For orientation: ELISA stands for enzyme-linked immunosorbent assay.

Data set [3] is described as follows: Binding affinity to DOPC/DOPS large unilamellar vesicles assessed as blue shift at 100 uM by DAPI staining based fluorescence assay.
Data set [4] relates to Plasma. Nature of the data set: Change in prothrombin time in human plasma at 100 uM incubated for 15 mins at room temperature and 2 mins at 37 degC in presence of calcium thromboplastin. The class given is ADME, cell-free.
In data set [5] the test system is Platelet. The experiment in a line: Antiplatelet activity in human platelet rich plasma assessed as inhibition of epinephrine-induced platelet aggregation preincubated for 2 mins followed by epinephrine addition by turbidimetric method. The class given is cell-based.
For data set [6], the system named is Platelet. Nature of the data set: Potency index, ratio of ozagrel IC50 to test compound IC50 for inhibition of arachidonic acid-induced platelet aggregation in human platelet rich plasma. It counts as functional.
Data set [7] has as its system Platelet. Nature of the data set: Potency index, ratio of aspirin IC50 to test compound IC50 for inhibition of arachidonic acid-induced platelet aggregation in human platelet rich plasma. It counts as functional.
In data set [8] the test system is Platelet. Nature of the data set: Antiplatelet activity in human platelet rich plasma assessed as inhibition of ADP-induced platelet aggregation preincubated for 2 mins followed by ADP addition by turbidimetric method. The class given is cell-based.
Data set [9] relates to Platelet. The experiment in a line: Antiplatelet activity in human platelet rich plasma assessed as inhibition of arachidonic acid-induced platelet aggregation at 100 uM preincubated for 2 mins followed by arachidonic acid addition by turbidimetric method relative to control. The class given is functional.
For data set [10], the target named is Cytochrome P450 3A4 (Homo sapiens, UniProt P08684). Nature of the data set: Inhibition of recombinant human CYP3A4 expressed in baculosomes using BOMR as substrate preincubated for 10 mins followed by substrate/NADP+ addition measured for 1 hr. It counts as ADME.
Data set [11] deals with Platelet. Nature of the data set: Antiplatelet activity in human platelet rich plasma assessed as inhibition of ADP-induced platelet aggregation at 100 uM preincubated for 2 mins followed by ADP addition by turbidimetric method relative to control. The class given is cell-based.
Data set [12] addresses T2, Prostaglandin G/H synthase 2 (Homo sapiens, UniProt P35354).
T2 sequence (P35354 whole entry): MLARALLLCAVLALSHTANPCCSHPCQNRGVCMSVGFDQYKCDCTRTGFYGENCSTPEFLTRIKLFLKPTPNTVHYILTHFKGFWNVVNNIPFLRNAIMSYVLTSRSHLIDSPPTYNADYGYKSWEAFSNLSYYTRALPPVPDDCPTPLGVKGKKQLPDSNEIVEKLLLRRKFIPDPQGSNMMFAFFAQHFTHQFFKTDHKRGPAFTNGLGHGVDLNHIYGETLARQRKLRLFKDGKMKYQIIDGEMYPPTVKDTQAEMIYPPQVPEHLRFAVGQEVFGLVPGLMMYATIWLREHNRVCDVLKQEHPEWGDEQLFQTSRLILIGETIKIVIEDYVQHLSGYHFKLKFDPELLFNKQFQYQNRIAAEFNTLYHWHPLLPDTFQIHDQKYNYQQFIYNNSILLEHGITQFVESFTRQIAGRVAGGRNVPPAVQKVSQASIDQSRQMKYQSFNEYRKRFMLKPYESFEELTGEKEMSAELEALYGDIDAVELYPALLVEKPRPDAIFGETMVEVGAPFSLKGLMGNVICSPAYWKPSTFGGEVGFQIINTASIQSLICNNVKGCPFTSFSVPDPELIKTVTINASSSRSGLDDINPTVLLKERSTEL
Nature of the data set: Inhibition of recombinant human COX-2 assessed as reduction in PGH2 production at 100 uM using arachidonic acid as substrate preincubated for 5 mins followed by substrate and hematin addition measured after 2 mins by ELISA relative to control.

For data set [13], the system named is Platelet. Nature of the data set: Drug uptake in human platelet assessed as co-localization with CD31 at 100 uM by epifluorescence assay. It counts as ADME, cell-based.
Data set [14] deals with Prostaglandin G/H synthase 1 (Homo sapiens, UniProt P23219). Nature of the data set: Inhibition of COX1 in human platelet rich plasma assessed as decrease in PGE2 production at 100 uM using arachidonic acid as substrate after 5 mins by ELISA.
Data set [15] relates to Platelet. Nature of the data set: Antiplatelet activity in human platelet rich plasma assessed as inhibition of arachidonic acid-induced platelet aggregation preincubated for 2 mins followed by arachidonic acid addition by turbidimetric method relative to control. The class given is functional, cell-based.
Data set [16] deals with T2, Prostaglandin G/H synthase 2. Nature of the data set: Inhibition of recombinant human COX-2 assessed as reduction in PGH2 production up to 100 uM using arachidonic acid as substrate preincubated for 5 mins followed by substrate and hematin addition measured after 2 mins by ELISA relative to control.
Data set [17] relates to Platelet. Nature of the data set: Antiplatelet activity in human platelet rich plasma assessed as inhibition of epinephrine-induced platelet aggregation at 100 uM preincubated for 2 mins followed by epinephrine addition by turbidimetric method relative to control. The class given is cell-based.
Data set [18] relates to Platelet. Nature of the data set: Drug uptake in human platelet assessed as co-localization with CD31 at 100 uM by confocal microscopy analysis. It counts as ADME, cell-based.
The subject of data set [19] is Blood. Nature of the data set: Reduction of clot retraction in human whole blood after 2 hrs. The class given is ADME, tissue-based.
Data set [20] in a line: Hemolytic activity against human erythrocytes after 3 hrs relative to control. To be noted: read-out: Activity. It counts as ADME, cell-based, Erythrocyte.
The test system of data set [21] is Platelet. The experiment in a line: Antiplatelet activity in human platelet rich plasma assessed as inhibition of […]-induced platelet aggregation at 100 uM preincubated for 2 mins followed by […] addition by turbidimetric method. The class given is functional, cell-based.
Data set [22] has as its system Platelet. Nature of the data set: Antiplatelet activity in human platelet rich plasma assessed as inhibition of collagen-induced platelet aggregation preincubated for 2 mins followed by collagen addition by turbidimetric method. It counts as cell-based.
The target of data set [23] is T3, Prostaglandin G/H synthase 1 (Ovis aries, UniProt P05979).
T3 sequence (P05979 whole entry): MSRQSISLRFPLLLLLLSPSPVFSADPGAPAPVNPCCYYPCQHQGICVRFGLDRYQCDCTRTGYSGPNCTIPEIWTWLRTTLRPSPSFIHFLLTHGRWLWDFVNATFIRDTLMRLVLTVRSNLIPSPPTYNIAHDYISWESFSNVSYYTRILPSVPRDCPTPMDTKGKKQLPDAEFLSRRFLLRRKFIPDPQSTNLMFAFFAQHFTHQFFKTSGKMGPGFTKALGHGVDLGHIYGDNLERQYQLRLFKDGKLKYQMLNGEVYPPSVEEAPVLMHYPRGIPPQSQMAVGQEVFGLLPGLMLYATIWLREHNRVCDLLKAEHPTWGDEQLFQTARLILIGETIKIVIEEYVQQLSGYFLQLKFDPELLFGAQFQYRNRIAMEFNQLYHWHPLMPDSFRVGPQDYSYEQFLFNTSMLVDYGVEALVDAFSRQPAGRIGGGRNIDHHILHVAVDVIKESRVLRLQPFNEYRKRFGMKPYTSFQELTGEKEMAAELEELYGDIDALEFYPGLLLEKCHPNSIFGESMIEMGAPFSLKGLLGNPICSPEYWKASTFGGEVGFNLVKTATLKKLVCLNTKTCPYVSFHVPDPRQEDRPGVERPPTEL
Nature of the data set: Inhibition of ovine COX-1 assessed as reduction in PGH2 production at 100 uM using arachidonic acid as substrate preincubated for 5 mins followed by substrate and hematin addition measured after 2 mins by ELISA relative to control. To be noted: sheep.

Data set [24] has as its target T3, Prostaglandin G/H synthase 1. Nature of the data set: Inhibition of ovine COX-1 assessed as reduction in PGH2 production up to 100 uM using arachidonic acid as substrate preincubated for 5 mins followed by substrate and hematin addition measured after 2 mins by ELISA relative to control. To be noted: sheep.
The test system of data set [25] is Plasma. Nature of the data set: Change in activated partial thromboplastin time in human plasma at 100 uM incubated for 15 mins at room temperature and 2 mins at 37 degC in presence of CaCl2. The class given is ADME, cell-free.
The nature of data set [26]: Selectivity ratio of IC50 for recombinant human CYP3A4 to IC50 for arachidonic acid-induced platelet aggregation in human platelet rich plasma.
The target in data set [27] is T3, Prostaglandin G/H synthase 1. The experiment in a line: Inhibition of ovine COX-1 assessed as reduction in PGH2 production using arachidonic acid as substrate preincubated for 5 mins followed by substrate and hematin addition measured after 2 mins by ELISA relative to control. The settings on record: sheep.

Chain of Cytochrome P450 3A4 (P08684 whole entry): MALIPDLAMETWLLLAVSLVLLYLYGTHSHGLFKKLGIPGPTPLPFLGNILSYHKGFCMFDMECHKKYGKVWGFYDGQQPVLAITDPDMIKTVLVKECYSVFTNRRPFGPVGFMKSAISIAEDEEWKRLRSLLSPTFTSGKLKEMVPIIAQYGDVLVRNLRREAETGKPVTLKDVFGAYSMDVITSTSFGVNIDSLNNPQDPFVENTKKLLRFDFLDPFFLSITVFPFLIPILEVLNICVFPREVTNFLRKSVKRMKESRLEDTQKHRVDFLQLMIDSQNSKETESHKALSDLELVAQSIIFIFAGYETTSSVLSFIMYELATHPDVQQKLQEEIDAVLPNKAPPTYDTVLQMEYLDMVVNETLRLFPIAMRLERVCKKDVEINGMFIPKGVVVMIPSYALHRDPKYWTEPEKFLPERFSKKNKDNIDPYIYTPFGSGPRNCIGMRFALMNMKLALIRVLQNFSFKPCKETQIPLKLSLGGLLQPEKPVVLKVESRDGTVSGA
Chain of Prostaglandin G/H synthase 1 (Homo sapiens, UniProt P23219) (P23219 whole entry): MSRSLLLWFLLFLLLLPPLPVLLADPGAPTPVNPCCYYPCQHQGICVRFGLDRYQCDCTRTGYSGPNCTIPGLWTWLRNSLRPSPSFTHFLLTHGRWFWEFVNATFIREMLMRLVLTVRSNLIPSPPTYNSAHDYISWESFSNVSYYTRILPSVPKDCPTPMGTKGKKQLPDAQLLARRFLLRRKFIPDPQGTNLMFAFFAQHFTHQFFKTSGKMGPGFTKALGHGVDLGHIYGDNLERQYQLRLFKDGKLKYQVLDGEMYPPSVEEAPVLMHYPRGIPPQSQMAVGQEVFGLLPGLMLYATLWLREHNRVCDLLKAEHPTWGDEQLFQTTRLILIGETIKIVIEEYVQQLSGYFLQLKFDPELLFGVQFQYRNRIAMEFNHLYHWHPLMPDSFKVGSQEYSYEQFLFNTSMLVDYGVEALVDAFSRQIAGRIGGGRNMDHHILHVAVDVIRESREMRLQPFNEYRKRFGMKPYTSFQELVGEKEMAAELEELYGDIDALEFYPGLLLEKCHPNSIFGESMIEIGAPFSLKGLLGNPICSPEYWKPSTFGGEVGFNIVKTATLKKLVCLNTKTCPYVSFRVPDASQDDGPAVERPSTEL

For orientation: inhibition means the change of the read-out against control, counted positive when it falls. What is called IC50 is the point on the concentration scale where inhibition reaches its midpoint. Turning to `Cc1cc(C(=O)N/N=C/c2ccc(O)cc2)c2c(C)nn(-c3ccccc3)c2n1`, the inhibition at 100 µM in data set [1] was 64.6%; in data set [9], 96.8%; in [11], 3.22%; in data set [17] it was 3.3%. In addition, in data set [2], the inhibition result is “Active”. Further, the result in data set [3] was Active. The Activity result in [4], in data set [19] and in [25] was “Non-Toxic” in each case. For the same compound, the IC50 in data set [5] is over 100 µM; in [8], over 100 µM; in [15], 3.67 to 10.2 µM; in data set [22] it was over 100 µM. Moreover, the “Ratio IC50” value in data set [6] and in data set [7] was “<=10” each time. The “inhibition (INH)” value in data set [10] (human, recombinant enzyme, 1 h) is recorded as “Dose-dependent effect”; in data set [12] it was “Active”; in [14] it was “Not Active”; in data set [16], “Not Active”; in [23], “Active”; in data set [24], “Not Active”. The Drug uptake entry in [13] and in [18] was “Active” each time. For the same compound, in data set [20], the hemolysis at 3 h was determined as 0%. The inhibition result in data set [21] is “inactive”.
Regarding `Cc1cc(C(=O)N/N=C/c2ccc(Cl)cc2)c2c(C)nn(-c3ccccc3)c2n1`, the inhibition at 100 µM in [1] amounted to 35.3%; in data set [9], 83.8%; in data set [11], 3.4%; in [17], 1.1%. The inhibition result in data set [2] was “Active”. In addition, in data set [3], the outcome was Active. In addition, the Activity entry in data set [4], in data set [19] and in data set [25] was “Non-Toxic” throughout. The half-inhibitory concentration (IC50) in [5] was over 100 µM; in data set [8] it was over 100 µM; in data set [10], 94.6 µM; in data set [15], 3.67 to 10.2 µM; in data set [22], over 100 µM. Further, the entries for the “Ratio IC50” value in data set [6], in [7] and in data set [26] were “<=10”, “<=10” and 20 to 30, respectively. Also, the Drug uptake entry in data set [13] and in data set [18] was “Active” in each case. Also, the “inhibition (INH)” value in data set [14] was “Active”; in data set [16] it was “Not Active”; in data set [24], “Not Active”. In addition, in [20], the hemolysis at 3 h came out at 10%. Also, in [21], the inhibition result was “inactive”.
Regarding `COc1ccc2c(c1)c(CC(=O)O)c(C)n2C(=O)c1ccc(Cl)cc1` [INDOMETHACIN], the “inhibition (INH)” value in [27] was under 20%.
